The kinase profiling compilation of Christmann-Franck et al. (2016)

How the values were obtained:
Assay in all cases: KINOMEscan competition binding
Conditions in all cases: compound 10.0 µM
[1] = target: HIPK1 (human) (UniProt Q86Z02)
[2] = target: INSR (human) (UniProt P06213)
[3] = target: PRKD2 (human) (UniProt Q9BZL6)
[4] = target: SLK (human) (UniProt Q9H2G2)
[5] = target: ITK (human) (UniProt Q08881)
[6] = target: FGR (human) (UniProt P09769)
[7] = target: TXK (human) (UniProt P42681)
[8] = target: MAP3K5 (human) (UniProt Q99683)
[9] = target: PRKD1 (human) (UniProt Q15139)
Sequence of PRKD1 (human) (Q15139 whole entry, looked up): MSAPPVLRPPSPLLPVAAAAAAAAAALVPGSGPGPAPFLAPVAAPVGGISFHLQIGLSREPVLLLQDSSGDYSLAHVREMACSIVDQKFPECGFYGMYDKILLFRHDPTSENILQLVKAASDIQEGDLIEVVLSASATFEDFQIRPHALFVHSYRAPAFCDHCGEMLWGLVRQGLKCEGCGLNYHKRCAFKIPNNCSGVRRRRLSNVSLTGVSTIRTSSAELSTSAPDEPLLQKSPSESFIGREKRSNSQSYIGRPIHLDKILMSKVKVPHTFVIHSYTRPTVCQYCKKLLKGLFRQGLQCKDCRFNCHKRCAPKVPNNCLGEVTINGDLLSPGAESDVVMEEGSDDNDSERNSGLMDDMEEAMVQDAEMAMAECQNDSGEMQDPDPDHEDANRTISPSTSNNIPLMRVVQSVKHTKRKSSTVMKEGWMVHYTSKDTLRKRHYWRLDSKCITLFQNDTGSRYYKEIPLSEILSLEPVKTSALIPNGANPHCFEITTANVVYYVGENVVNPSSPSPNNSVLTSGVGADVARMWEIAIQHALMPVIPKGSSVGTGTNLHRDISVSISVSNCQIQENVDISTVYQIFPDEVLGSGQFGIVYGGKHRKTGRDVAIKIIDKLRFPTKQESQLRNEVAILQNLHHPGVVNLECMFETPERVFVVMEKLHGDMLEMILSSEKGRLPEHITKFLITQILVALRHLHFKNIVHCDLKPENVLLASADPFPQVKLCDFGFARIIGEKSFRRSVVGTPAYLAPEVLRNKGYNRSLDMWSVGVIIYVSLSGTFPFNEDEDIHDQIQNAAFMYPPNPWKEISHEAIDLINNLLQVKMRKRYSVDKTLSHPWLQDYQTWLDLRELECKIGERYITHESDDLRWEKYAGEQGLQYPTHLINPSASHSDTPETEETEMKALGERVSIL

[10] = target: CAMK1D (human) (UniProt Q8IU85)
[11] = target: MAP2K3 (human) (UniProt P46734)
[12] = target: DCLK3 (human) (UniProt Q9C098)
[13] = target: FGFR1 (human) (UniProt P11362)
[14] = target: CLK2 (human) (UniProt P49760)
[15] = target: CHUK (human) (UniProt O15111)
[16] = target: EPHA2 (human) (UniProt P29317)
[17] = target: PRKAA1 (human) (UniProt Q13131)
[18] = target: CAMK1G (human) (UniProt Q96NX5)
Sequence of CAMK1G (human) (Q96NX5 whole entry, looked up): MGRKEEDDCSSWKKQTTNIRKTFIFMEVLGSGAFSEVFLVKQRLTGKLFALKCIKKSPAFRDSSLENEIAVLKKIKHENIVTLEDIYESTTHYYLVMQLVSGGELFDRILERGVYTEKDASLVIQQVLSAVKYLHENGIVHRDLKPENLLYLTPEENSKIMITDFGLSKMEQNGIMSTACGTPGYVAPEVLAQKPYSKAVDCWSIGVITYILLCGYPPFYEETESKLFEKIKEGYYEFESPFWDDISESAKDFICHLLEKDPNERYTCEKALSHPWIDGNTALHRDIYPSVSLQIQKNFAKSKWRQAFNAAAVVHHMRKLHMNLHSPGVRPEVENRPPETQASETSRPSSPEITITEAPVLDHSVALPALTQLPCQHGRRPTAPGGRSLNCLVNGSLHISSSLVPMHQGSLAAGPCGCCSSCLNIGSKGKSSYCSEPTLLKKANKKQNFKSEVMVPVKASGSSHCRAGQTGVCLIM

[19] = target: PKN2 (human) (UniProt Q16513)
[20] = target: MUSK (human) (UniProt O15146)
[21] = target: STK32B (human) (UniProt Q9NY57)
[22] = target: MYO3B (human) (UniProt Q8WXR4)
[23] = target: BMPR2 (human) (UniProt Q13873)
[24] = target: MERTK (human) (UniProt Q12866)
Sequence of MERTK (human) (Q12866 whole entry, looked up): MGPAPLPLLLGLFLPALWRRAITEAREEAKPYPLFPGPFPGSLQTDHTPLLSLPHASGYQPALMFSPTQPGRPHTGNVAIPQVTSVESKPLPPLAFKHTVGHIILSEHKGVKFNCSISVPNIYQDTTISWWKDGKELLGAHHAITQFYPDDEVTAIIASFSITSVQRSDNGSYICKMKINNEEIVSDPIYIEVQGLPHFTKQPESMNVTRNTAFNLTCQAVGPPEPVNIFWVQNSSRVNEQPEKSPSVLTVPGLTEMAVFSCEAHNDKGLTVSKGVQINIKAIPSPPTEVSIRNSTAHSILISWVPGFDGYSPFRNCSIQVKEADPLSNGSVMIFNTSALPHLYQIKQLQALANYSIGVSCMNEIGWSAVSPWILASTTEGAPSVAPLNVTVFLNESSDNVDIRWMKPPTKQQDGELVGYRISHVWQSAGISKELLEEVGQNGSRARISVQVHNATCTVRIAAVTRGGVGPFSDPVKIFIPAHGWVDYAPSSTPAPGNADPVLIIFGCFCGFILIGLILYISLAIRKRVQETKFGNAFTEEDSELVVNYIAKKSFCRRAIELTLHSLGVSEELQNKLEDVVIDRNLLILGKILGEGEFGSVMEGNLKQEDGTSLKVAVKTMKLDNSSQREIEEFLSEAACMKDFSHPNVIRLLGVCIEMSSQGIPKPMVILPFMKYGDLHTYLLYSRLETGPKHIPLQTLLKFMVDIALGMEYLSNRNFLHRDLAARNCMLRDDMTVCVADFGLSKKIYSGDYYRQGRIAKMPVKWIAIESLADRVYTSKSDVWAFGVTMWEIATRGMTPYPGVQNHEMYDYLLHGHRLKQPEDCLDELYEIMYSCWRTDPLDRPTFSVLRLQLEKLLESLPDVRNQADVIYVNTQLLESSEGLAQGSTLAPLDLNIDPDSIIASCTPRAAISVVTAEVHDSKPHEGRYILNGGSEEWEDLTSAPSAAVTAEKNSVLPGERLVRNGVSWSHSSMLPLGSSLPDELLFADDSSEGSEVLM

[25] = target: CHEK1 (human) (UniProt O14757)
[26] = target: ROCK2 (human) (UniProt O75116)
[27] = target: MAP3K10 (human) (UniProt Q02779)
[28] = target: MAP2K1 (human) (UniProt Q02750)
[29] = target: CDK3 (human) (UniProt Q00526)
[30] = target: MKNK2 (human) (UniProt Q9HBH9)
Sequence of MKNK2 (human) (Q9HBH9 whole entry, looked up): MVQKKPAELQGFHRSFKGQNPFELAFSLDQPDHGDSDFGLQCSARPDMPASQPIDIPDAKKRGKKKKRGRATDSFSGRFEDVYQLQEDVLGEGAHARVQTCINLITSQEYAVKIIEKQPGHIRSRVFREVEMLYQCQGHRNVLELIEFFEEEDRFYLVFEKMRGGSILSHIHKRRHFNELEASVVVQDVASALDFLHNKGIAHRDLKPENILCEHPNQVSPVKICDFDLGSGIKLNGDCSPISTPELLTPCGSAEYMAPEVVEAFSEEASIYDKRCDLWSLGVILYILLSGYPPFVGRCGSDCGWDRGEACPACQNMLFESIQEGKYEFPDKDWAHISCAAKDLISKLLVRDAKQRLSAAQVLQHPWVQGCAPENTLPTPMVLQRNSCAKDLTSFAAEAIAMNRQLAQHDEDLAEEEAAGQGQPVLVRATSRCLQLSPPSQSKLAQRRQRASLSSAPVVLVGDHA

[31] = target: FLT1 (human) (UniProt P17948)
[32] = target: IGF1R (human) (UniProt P08069)
[33] = target: RPS6KA1 KD1 (human) (UniProt Q15418)
[34] = target: CAMK4 (human) (UniProt Q16566)
[35] = target: LATS2 (human) (UniProt Q9NRM7)
Sequence of LATS2 (human) (Q9NRM7 whole entry, looked up): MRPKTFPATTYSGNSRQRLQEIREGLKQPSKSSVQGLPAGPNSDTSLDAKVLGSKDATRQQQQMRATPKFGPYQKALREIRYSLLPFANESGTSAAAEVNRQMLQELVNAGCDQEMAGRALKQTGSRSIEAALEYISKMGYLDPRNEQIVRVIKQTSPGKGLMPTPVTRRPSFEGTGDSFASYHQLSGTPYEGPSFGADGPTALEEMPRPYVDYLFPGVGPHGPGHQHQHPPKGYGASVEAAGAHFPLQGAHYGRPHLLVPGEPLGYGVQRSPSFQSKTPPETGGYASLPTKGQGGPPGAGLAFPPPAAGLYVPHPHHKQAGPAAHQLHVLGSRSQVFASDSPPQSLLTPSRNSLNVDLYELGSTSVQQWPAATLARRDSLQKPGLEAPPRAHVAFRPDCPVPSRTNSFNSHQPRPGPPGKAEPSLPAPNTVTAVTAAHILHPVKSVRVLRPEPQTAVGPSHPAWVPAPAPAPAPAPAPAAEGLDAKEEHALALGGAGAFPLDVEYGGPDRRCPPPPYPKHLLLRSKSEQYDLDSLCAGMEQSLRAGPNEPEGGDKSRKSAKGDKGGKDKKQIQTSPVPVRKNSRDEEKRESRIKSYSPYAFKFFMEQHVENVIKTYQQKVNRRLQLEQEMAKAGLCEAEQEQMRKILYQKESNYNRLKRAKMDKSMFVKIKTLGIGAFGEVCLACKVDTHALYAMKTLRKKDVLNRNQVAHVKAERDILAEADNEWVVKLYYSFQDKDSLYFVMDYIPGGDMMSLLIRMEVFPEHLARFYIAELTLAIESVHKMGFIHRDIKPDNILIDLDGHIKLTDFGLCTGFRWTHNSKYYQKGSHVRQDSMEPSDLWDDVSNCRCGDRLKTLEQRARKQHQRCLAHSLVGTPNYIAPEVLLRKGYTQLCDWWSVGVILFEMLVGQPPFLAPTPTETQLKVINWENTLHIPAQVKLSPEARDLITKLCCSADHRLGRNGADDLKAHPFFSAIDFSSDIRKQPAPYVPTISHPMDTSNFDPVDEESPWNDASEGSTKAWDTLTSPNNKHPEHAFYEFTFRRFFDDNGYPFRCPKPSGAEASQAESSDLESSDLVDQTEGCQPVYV

[36] = target: ULK3 (human) (UniProt Q6PHR2)
[37] = target: DAPK2 (human) (UniProt Q9UIK4)
[38] = target: RPS6KA6 KD1 (human) (UniProt Q9UK32)
[39] = target: PIK3C2B (human) (UniProt O00750)
[40] = target: CLK1 (human) (UniProt P49759)

Sequence of PRKD2 (human) (Q9BZL6 whole entry, looked up): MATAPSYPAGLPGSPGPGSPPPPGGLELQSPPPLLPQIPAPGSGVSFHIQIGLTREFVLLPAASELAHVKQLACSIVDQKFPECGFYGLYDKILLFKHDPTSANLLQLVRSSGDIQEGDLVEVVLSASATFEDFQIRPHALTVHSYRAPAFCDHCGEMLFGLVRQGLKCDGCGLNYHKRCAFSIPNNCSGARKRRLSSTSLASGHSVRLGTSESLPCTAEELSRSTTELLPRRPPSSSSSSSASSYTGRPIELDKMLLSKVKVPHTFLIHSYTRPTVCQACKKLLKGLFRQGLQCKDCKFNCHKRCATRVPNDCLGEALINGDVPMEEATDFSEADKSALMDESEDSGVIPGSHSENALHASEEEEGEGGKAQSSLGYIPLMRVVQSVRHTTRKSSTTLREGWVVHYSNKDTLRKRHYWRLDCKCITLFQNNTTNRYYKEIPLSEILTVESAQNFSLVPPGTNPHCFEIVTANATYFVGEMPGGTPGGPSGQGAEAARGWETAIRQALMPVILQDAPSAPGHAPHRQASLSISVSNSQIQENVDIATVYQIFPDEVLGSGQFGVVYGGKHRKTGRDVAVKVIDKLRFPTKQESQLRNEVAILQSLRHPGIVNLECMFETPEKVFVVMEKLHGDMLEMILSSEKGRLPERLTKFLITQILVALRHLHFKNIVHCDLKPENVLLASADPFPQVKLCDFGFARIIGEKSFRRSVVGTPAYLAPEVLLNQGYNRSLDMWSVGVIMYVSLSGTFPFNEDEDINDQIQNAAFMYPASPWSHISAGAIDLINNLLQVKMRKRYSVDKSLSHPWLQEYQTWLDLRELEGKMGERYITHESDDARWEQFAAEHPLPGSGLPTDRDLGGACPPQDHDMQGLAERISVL

| SMILES | kinase still bound, per cent of control [1] [%] | kinase still bound, per cent of control [2] [%] | kinase still bound, per cent of control [3] [%] | kinase still bound, per cent of control [4] [%] | kinase still bound, per cent of control [5] [%] | kinase still bound, per cent of control [6] [%] | kinase still bound, per cent of control [7] [%] | kinase still bound, per cent of control [8] [%] | kinase still bound, per cent of control [9] [%] | kinase still bound, per cent of control [10] [%] | kinase still bound, per cent of control [11] [%] | kinase still bound, per cent of control [12] [%] | kinase still bound, per cent of control [13] [%] | kinase still bound, per cent of control [14] [%] | kinase still bound, per cent of control [15] [%] | kinase still bound, per cent of control [16] [%] | kinase still bound, per cent of control [17] [%] | kinase still bound, per cent of control [18] [%] | kinase still bound, per cent of control [19] [%] | kinase still bound, per cent of control [20] [%] | further results |
| --- | --- | --- | --- | --- | --- | --- | --- | --- | --- | --- | --- | --- | --- | --- | --- | --- | --- | --- | --- | --- | --- |
| Cc1cc([C@@H](C)Nc2ccccc2C(=O)O)c2nc(N3CCOCC3)cc(=O)n2c1 | 100 | 100 | 100 | 100 | 98 | 95 | 90 | 100 | 89 | 100 | 100 | 85 | 89 | 70 | 100 | 70 | 100 | 91 | 98 | 100 | kinase still bound, per cent of control [21]: 71%; kinase still bound, per cent of control [22]: 93%; kinase still bound, per cent of control [23]: 85%; kinase still bound, per cent of control [24]: 100%; kinase still bound, per cent of control [25]: 100%; kinase still bound, per cent of control [26]: 91%; kinase still bound, per cent of control [27]: 96%; kinase still bound, per cent of control [28]: 89%; kinase still bound, per cent of control [29]: 100%; kinase still bound, per cent of control [30]: 92%; kinase still bound, per cent of control [31]: 83%; kinase still bound, per cent of control [32]: 100%; kinase still bound, per cent of control [33]: 73%; kinase still bound, per cent of control [34]: 100%; kinase still bound, per cent of control [35]: 63%; kinase still bound, per cent of control [36]: 98%; kinase still bound, per cent of control [37]: 92%; kinase still bound, per cent of control [38]: 71%; kinase still bound, per cent of control [39]: 0.35%; kinase still bound, per cent of control [40]: 74% |
| OCCCNc1cc(-c2ccnc(Nc3cccc(Cl)c3)n2)ccn1 | 4.6 | 100 | 100 | 100 | 100 | 100 | 100 | 100 | 100 | 100 | 100 | 100 | 100 | 0.3 | 100 | 100 | 100 | 100 | 100 | 100 | kinase still bound, per cent of control [21]: 100%; kinase still bound, per cent of control [22]: 100%; kinase still bound, per cent of control [23]: 100%; kinase still bound, per cent of control [24]: 100%; kinase still bound, per cent of control [25]: 100%; kinase still bound, per cent of control [26]: 100%; kinase still bound, per cent of control [27]: 100%; kinase still bound, per cent of control [28]: 100%; kinase still bound, per cent of control [29]: 100%; kinase still bound, per cent of control [30]: 100%; kinase still bound, per cent of control [31]: 100%; kinase still bound, per cent of control [32]: 100%; kinase still bound, per cent of control [33]: 100%; kinase still bound, per cent of control [34]: 100%; kinase still bound, per cent of control [35]: 100%; kinase still bound, per cent of control [36]: 100%; kinase still bound, per cent of control [37]: 100%; kinase still bound, per cent of control [38]: 100%; kinase still bound, per cent of control [39]: 100%; kinase still bound, per cent of control [40]: 2.2% |
| Cc1ccc(C(=O)Nc2cccc(C(F)(F)F)c2)cc1Nc1cncc(C(N)=O)c1 | 100 | 100 | 100 | 100 | 100 | 100 | 100 | 100 | 100 | 100 | 100 | 100 | 100 | 100 | 100 | 2.2 | 100 | 100 | 100 | 100 | kinase still bound, per cent of control [21]: 100%; kinase still bound, per cent of control [22]: 100%; kinase still bound, per cent of control [23]: 100%; kinase still bound, per cent of control [24]: 100%; kinase still bound, per cent of control [25]: 100%; kinase still bound, per cent of control [26]: 100%; kinase still bound, per cent of control [27]: 100%; kinase still bound, per cent of control [28]: 100%; kinase still bound, per cent of control [29]: 100%; kinase still bound, per cent of control [30]: 100%; kinase still bound, per cent of control [31]: 33%; kinase still bound, per cent of control [32]: 100%; kinase still bound, per cent of control [33]: 100%; kinase still bound, per cent of control [34]: 100%; kinase still bound, per cent of control [35]: 100%; kinase still bound, per cent of control [36]: 100%; kinase still bound, per cent of control [37]: 100%; kinase still bound, per cent of control [38]: 100%; kinase still bound, per cent of control [39]: 100%; kinase still bound, per cent of control [40]: 100% |
